Test [1] can be described thus: Calcemic action in normal rats (blood ionized calcium). It is filed as in vivo. The following applies: normal and TPTX rats. As for the experimental part: Binding to the rat PTHR was also measured in vitro.
Concentration of peptides in stock solution were adjusted by dilution with 25 mmol/L phosphate-citrate buffer/100 mmol/L NaCl/0.05% Tween 80 (pH. 5.0) (PC-buffer). All peptides were allowed to stand on ice immediately before administration.
Female SD-IGS rat at 8 weeks of age (Charles River Japan, Inc.) were measured for their body weight. Blood was collected by tail vein into heparinized capillary tubes and measured for baseline levels of blood ionized calcium and pH using Ca^++/pH analyzer (Model 634/Bayer Medical Ltd.) to give the corrected level of ionized calcium at pH 7.4 for each sample. Rats received intravenous administration of each peptides at a dose of 1 ml/kg. Peptides were administered to groups of 6 rats each respectively. At 1, 2, 4, or 6 hours after administration, blood was collected by tail vein to monitor the time course of corrected blood ionized calcium levels. The time course of changes in corrected ionized calcium levels, compared to vehicle, and are expressed as means+/−standard error.

Test [2] deals with T1, hPTH1R (R0 form of the human PTH receptor) (Homo sapiens, UniProt Q03431).
T1 construct: expressed in transfected cells; host or cells: COS-7, transient (Fugene-6)
The experiment in a line: R0 memb: hPTH1R*PTH( 1-34)+GTPgS.

For test [3], the target named is hPTH1R (RG form of the human PTH receptor). Nature of the test: RG memb: hPTH1R+dnGS *M-PTH(1-15).
Another test addresses T2, human PTH receptor (Homo sapiens, UniProt Q03431).
T2 construct: expressed in transfected cells
The experiment in a line: cAMP in HRKRK-B7 cells EC50 (nM). The source says:
Table printed on a drawing sheet, Figure 25
Head of the field: cAMP in HRKRK-B7 cells EC50 (nM)
First copying reader's note: The column head prints the cell line as HRKRK-B7 while the title prints HKRK-B7.

The target of the next test is T3, human PTH1 receptor (Homo sapiens, UniProt Q03431).
T3 construct: expressed in transfected cells
T3 sequence (Q03431 27-593): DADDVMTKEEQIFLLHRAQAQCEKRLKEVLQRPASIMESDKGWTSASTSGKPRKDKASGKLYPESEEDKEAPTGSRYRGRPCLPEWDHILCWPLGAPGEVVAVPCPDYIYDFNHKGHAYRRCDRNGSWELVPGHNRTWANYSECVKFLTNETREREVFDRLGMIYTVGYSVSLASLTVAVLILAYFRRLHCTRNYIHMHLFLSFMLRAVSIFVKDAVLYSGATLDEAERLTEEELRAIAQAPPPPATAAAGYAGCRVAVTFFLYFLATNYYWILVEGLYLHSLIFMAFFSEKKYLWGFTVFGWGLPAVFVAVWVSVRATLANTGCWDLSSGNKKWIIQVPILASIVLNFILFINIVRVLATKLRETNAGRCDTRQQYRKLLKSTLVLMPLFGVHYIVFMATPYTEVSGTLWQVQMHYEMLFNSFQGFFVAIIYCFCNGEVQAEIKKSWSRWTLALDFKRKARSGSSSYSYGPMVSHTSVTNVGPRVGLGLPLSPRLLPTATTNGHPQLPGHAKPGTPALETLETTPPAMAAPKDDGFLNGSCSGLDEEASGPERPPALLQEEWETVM
Nature of the test: cAMP signaling dose-response in HKRK-B7 cells. It is filed as cell-based. The following applies: 15 min, 37° C., IBMX. As for the experimental part:
In the cAMP experiments of FIG. 14, HKRK-B7 were seeded in 96 well plates at 1×10^5 cells/well and incubated overnight. On the following day, the cells were washed once with […] of binding buffer (50 mM Tris-HCl, pH 7.7, 100 mM NaCl, 5 mM KCl, 2 mM CaCl2, 5% heat-inactivated horse serum, 0.5% heat-inactivated fetal bovine serum), followed by addition of 100 μl cAMP assay buffer (DMEM, 2 mM IBMX, 1 mg/ml bovine serum albumin, 35 mM Hepes-NaOH, pH 7.4) on ice. […] After removing the medium, the plates were placed on powdered dry ice to freeze the cells and then removed from dry ice. The cells were thawed with 50 μl of 50 mM HCl and frozen again on dry ice. The level of intracellular cAMP was measured with a commercially available cAMP EIA kit (Biotrack cAMP EIA system, GE Healthcare).
HKRK-B, which are LLC-PK1 cells over-expressing human PTH1 receptor at levels of 9.5×10^5 per cell were used in the cAMP signaling assay. The cells were cultured at 37° C. in a humidified atmosphere containing 5% CO2 in Dulbecco's modified Eagle's medium (DMEM), supplemented with 10% fetal bovine serum (Hyclone), 100 units/ml penicillin G, and 100 μg/ml streptomycin sulfate (Invitrogen Corp). […] All peptides were dissolved at 1 mM in 10 mM acetic acid, and stored at −80° C. The cAMP stimulation assay was performed as described above for HKRK-B7 cells. […] Cells were treated for 15 minutes at 37° C. with varying concentrations of ligands in the presence of IBMX.

In test [4] the target is T4, human PTHR, G protein-uncoupled conformation (R^0) (Homo sapiens, UniProt Q03431).
T4 construct: expressed in transfected cells; host or cells: COS-7, transient (Fugene-6)
T4 sequence (Q03431 27-593): T3 sequence (Q03431 27-593)
Nature of the test: Competition binding to R0 conformation of hPTHR (COS-7 membranes, GTPγS, 125I-PTH(1-34) tracer). The following applies: human PTH receptor on COS-7 cell membranes. A digest of the protocol:
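Membranes from hPTHR-transfected COS-7 cells (20-100 μg/mL protein) incubated 90 min with radioligand (~150,000 cpm/ml) and unlabeled ligands, then filtered. Specific binding expressed as % of binding without competitor.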

Peptide text beside a SMILES is read from it.

As to `CC[C@H](C)[C@H](NC(=O)[C@H](CCC(=O)O)NC(=O)[C@H](C)NC(=O)[C@@H](NC(=O)[C@H](Cc1c[nH]cn1)NC(=O)[C@@H](NC(=O)[C@H](CCC(=O)O)NC(=O)[C@H](C)NC(=O)[C@@H](NC(=O)[C@H](CC(C)C)NC(=O)[C@H](Cc1c[nH]cn1)NC(=O)[C@H](Cc1c[nH]cn1)NC(=O)[C@H](CC(C)C)NC(=O)[C@H](Cc1ccccc1)NC(=O)[C@H](CCC(=O)O)NC(=O)[C@@H](NC(=O)[C@H](CCCNC(=N)N)NC(=O)[C@H](CCC(=O)O)NC(=O)[C@H](CCSC)NC(=O)[C@H](CO)NC(=O)[C@H](CC(N)=O)NC(=O)[C@H](CC(C)C)NC(=O)[C@H](Cc1c[nH]cn1)NC(=O)[C@H](CCCCN)NC(=O)CNC(=O)[C@H](CC(C)C)NC(=O)[C@H](CC(N)=O)NC(=O)[C@H](Cc1c[nH]cn1)NC(=O)[C@H](CCSC)NC(=O)[C@H](CC(C)C)NC(=O)[C@H](CCC(N)=O)NC(=O)[C@@H](NC(=O)[C@H](CCC(=O)O)NC(=O)[C@H](CO)NC(=O)[C@@H](NC(=O)[C@@H](N)CO)C(C)C)[C@@H](C)CC)C(C)C)[C@@H](C)CC)[C@@H](C)CC)[C@@H](C)O)C(=O)O` [PTH(1-22)/PTHrP(23-36)] (H-SVSEIQLMHNLGKHLNSMERVEFLHHLIAEIHTAEI-OH), the “calcemic action compared with control peptides, in words” value in test [1] is “weaker calcemic actions than did either PTH(1-34) or PTHrP(1-36) control peptides”. The IC50 in test [2] worked out at 16.8 nM; in test [3], 0.22 nM. The concentration for a half-maximal effect (EC50) on human PTH receptor amounted to 0.89 nM.
Take `CC[C@H](C)[C@H](NC(=O)[C@H](CCC(=O)O)NC(=O)[C@H](C)NC(=O)[C@@H](NC(=O)[C@H](C)N)C(C)C)C(=O)N[C@@H](CCC(N)=O)C(=O)N[C@@H](CC(C)C)C(=O)N[C@@H](CCSC)C(=O)N[C@@H](Cc1c[nH]cn1)C(=O)N[C@@H](CCC(N)=O)C(=O)N[C@@H](CCCNC(=N)N)C(=O)N[C@@H](C)C(=O)N[C@@H](CCCCN)C(=O)N[C@@H](Cc1c[nH]c2ccccc12)C(=O)N[C@@H](CC(C)C)C(=O)N[C@@H](CC(N)=O)C(=O)N[C@@H](CO)C(=O)N[C@@H](CCSC)C(=O)N[C@@H](CCCNC(=N)N)C(=O)N[C@@H](CCCNC(=N)N)C(=O)N[C@H](C(=O)N[C@@H](CCC(=O)O)C(=O)N[C@@H](Cc1c[nH]c2ccccc12)C(=O)N[C@@H](CC(C)C)C(=O)N[C@@H](CCCNC(=N)N)C(=O)N[C@@H](CCCCN)C(=O)N[C@@H](CCCCN)C(=O)N[C@@H](CC(C)C)C(=O)N[C@@H](CCC(N)=O)C(=O)N[C@@H](CC(=O)O)C(=O)N[C@H](C(=O)N[C@@H](Cc1c[nH]cn1)C(=O)N[C@@H](CC(N)=O)C(=O)N[C@@H](Cc1ccccc1)C(=O)O)C(C)C)C(C)C` [Mc-PTH34(R19), Mc-hPTH(1-34)OH] (H-AVAEIQLMHQRAKWLNSMRRVEWLRKKLQDVHNF-OH; N-terminus assumed): the “cAMP in HKRK-B7 cells Max” value on human PTH1 receptor was 65.5 pm/well.
On to `CC[C@H](C)[C@H](NC(=O)[C@H](CCC(=O)O)NC(=O)[C@H](C)NC(=O)[C@@H](NC(=O)[C@H](Cc1c[nH]cn1)NC(=O)[C@@H](NC(=O)[C@H](CCC(=O)O)NC(=O)[C@H](C)NC(=O)[C@@H](NC(=O)[C@H](CC(C)C)NC(=O)[C@H](CCCCN)NC(=O)[C@H](CCCNC(=N)N)NC(=O)[C@H](CC(C)C)NC(=O)[C@H](Cc1c[nH]c2ccccc12)NC(=O)[C@H](CCC(=O)O)NC(=O)[C@@H](NC(=O)[C@H](CCCNC(=N)N)NC(=O)[C@H](CCC(=O)O)NC(=O)[C@H](CCSC)NC(=O)[C@H](CO)NC(=O)[C@H](CC(N)=O)NC(=O)[C@H](CC(C)C)NC(=O)[C@H](Cc1c[nH]cn1)NC(=O)[C@H](CCCCN)NC(=O)CNC(=O)[C@H](CC(C)C)NC(=O)[C@H](CC(N)=O)NC(=O)[C@H](Cc1c[nH]cn1)NC(=O)[C@H](CCSC)NC(=O)[C@H](CC(C)C)NC(=O)[C@H](CCC(N)=O)NC(=O)[C@@H](NC(=O)[C@H](CCC(=O)O)NC(=O)[C@H](CO)NC(=O)[C@@H](NC(=O)[C@@H](N)CO)C(C)C)[C@@H](C)CC)C(C)C)[C@@H](C)CC)[C@@H](C)CC)[C@@H](C)O)C(=O)O` [PTH(1-26)/PTHrP(27-36), hPTH(1-26)/PTHrP(27-36)] (H-SVSEIQLMHNLGKHLNSMERVEWLRKLIAEIHTAEI-OH), for which the “calcemic action compared with control peptides, in words” value in test [1] is given as “weaker calcemic actions than did either PTH(1-34) or PTHrP(1-36) control peptides”. The 50% inhibitory concentration (IC50) in test [2] amounted to 7.9 nM; in test [3] it was 0.31 nM. For the same compound, the EC50 on human PTH receptor is 1.07 nM.
For the compound `CC[C@H](C)[C@H](NC(=O)[C@H](CCC(=O)O)NC(=O)[C@H](C)NC(=O)[C@@H](NC(=O)[C@H](C)N)C(C)C)C(=O)N[C@@H](CCC(N)=O)C(=O)N[C@@H](CC(C)C)C(=O)N[C@@H](CCSC)C(=O)N[C@@H](Cc1c[nH]cn1)C(=O)N[C@@H](CCC(N)=O)C(=O)N[C@@H](CCCNC(=N)N)C(=O)NCC(=O)N[C@@H](CCCCN)C(=O)N[C@@H](Cc1c[nH]cn1)C(=O)N[C@@H](CC(C)C)C(=O)N[C@@H](CC(N)=O)C(=O)N[C@@H](CO)C(=O)N[C@@H](CCSC)C(=O)N[C@@H](CCC(=O)O)C(=O)N[C@@H](CCCNC(=N)N)C(=O)N[C@H](C(=O)N[C@@H](CCC(=O)O)C(=O)N[C@@H](C)C(=O)N[C@@H](CC(C)C)C(=O)N[C@@H](CCCNC(=N)N)C(=O)N[C@@H](CCCCN)C(=O)N[C@@H](CCCCN)C(=O)N[C@@H](CC(C)C)C(=O)N[C@@H](CCC(N)=O)C(=O)N[C@@H](CC(=O)O)C(=O)N[C@H](C(=O)N[C@@H](Cc1c[nH]cn1)C(=O)N[C@@H](CC(N)=O)C(=O)N[C@@H](Cc1ccccc1)C(=O)O)C(C)C)C(C)C` [[A1,3,23,Q10,R11]-PTH(1-34)OH, [A^1,A^3,A^23,Q^10,R^11]-PTH(1-34)OH], the “cAMP in HKRK-B7 cells Max” value on human PTH1 receptor worked out at 63.8 pm/well.
For the compound `CC[C@H](C)[C@H](NC(=O)[C@H](CCC(=O)O)NC(=O)[C@H](C)NC(=O)[C@@H](NC(=O)[C@H](C)N)C(C)C)C(=O)N[C@@H](CCC(N)=O)C(=O)N[C@@H](CC(C)C)C(=O)N[C@@H](CCSC)C(=O)N[C@@H](Cc1c[nH]cn1)C(=O)N[C@@H](CC(N)=O)C(=O)N[C@@H](CC(C)C)C(=O)NCC(=O)N[C@@H](CCCCN)C(=O)N[C@@H](Cc1c[nH]cn1)C(=O)N[C@@H](CC(C)C)C(=O)N[C@@H](CC(N)=O)C(=O)N[C@@H](CO)C(=O)N[C@@H](CCSC)C(=O)N[C@@H](CCC(=O)O)C(=O)N[C@@H](CCCNC(=N)N)C(=O)N[C@H](C(=O)N[C@@H](CCC(=O)O)C(=O)N[C@@H](C)C(=O)N[C@@H](CC(C)C)C(=O)N[C@@H](CCCNC(=N)N)C(=O)N[C@@H](CCCCN)C(=O)N[C@@H](CCCCN)C(=O)N[C@@H](CC(C)C)C(=O)N[C@@H](CCC(N)=O)C(=O)N[C@@H](CC(=O)O)C(=O)N[C@H](C(=O)N[C@@H](Cc1c[nH]cn1)C(=O)N[C@@H](CC(N)=O)C(=O)N[C@@H](Cc1ccccc1)C(=O)O)C(C)C)C(C)C` [[A1,3,23]-PTH(1-34)OH, [A^1,A^3,A^23]-PTH(1-34)OH] (H-AVAEIQLMHNLGKHLNSMERVEALRKKLQDVHNF-OH; N-terminus assumed), the R0/RG ratio in test [4] is given as 4291. On human PTH1 receptor, the “cAMP in HKRK-B7 cells Max” value is 66.6 pm/well.

The IC50 is the concentration at which inhibition is half-maximal. A high value points to weaker potency. As usually defined, the EC50 is the concentration needed to bring the measured effect to its halfway point. Low values mean higher potency in that assay, high ones lower potency in that assay.

The values are drawn from patent publication US9057727B2, “Screening methods using G-protein coupled receptors and related compositions” (The General Hospital Corporation, priority 2007, dated 2015).
